Test results as given in patent publication US20250353873A1, “COMPOUNDS AND METHODS FOR MODULATING APOE EXPRESSION” (Ionis Pharmaceuticals, Inc., priority 2024, published 2025).
Strand notation (5' to 3'): a small letter for the sugar, then the base; units joined by * are phosphorothioate-linked, units joined directly phosphodiester-linked; [ ] holds rarer units or linkages, { } end groups; capitals alone tell only the bases. [ms] = mesyl phosphoramidate linkage; e = 2'-O-(2-methoxyethyl) (MOE); k = constrained ethyl (cEt); [5mC] = 5-methylcytosine; d = 2'-deoxy (DNA)

Experiments:
human APOE RNA [1] = assay: Dose-dependent inhibition of human APOE RNA in HepG2 cells, electroporation, 50,000 cells per well, RT-PCR normalized to GAPDH (Example 4, Tables 8-10); type: cell-based; details: for APOE RNA (% UTC) 1,280 nM: 24-hour treatment, 1,280 nM; for APOE RNA (% UTC) 3,200 nM: 24-hour treatment, 3,200 nM; for APOE RNA (% UTC) 8,000 nM: 24-hour treatment, 8,000 nM; for APOE RNA (% UTC) 20,000 nM: 24-hour treatment, 20,000 nM
Method in brief: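 Readout is percent APOE RNA versus untreated controls, measured by RT-PCR (primer probe set RTS3073) and normalized to human GAPDH. Modified oligonucleotides were delivered by electroporation at varying doses into HepG2 cells plated at 50,000 per well.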

human APOE RNA [2] = assay: Activity in APOE C57BL/6NTac-Apoeem7250 knock-in mice, single ICV bolus, 4 weeks (Example 10); type: in vivo; details: single ICV bolus 300 μg, 4 weeks post treatment, normalized to mouse Ppia
Method in brief: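 Human APOE RNA, quantified by real-time RT-PCR with RTS3073 and normalized to mouse Ppia, was read in cortical brain and spinal cord 4 weeks post dosing. Dosing was a single ICV bolus of 300 μg per knock-in mouse; values are % of PBS-treated animals.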

human APOE RNA [3] = assay: Activity in APOE C57BL/6NTac-Apoeem7250 knock-in mice, single ICV bolus, 8 weeks (Example 11); type: in vivo; details: single ICV bolus 300 μg, 8 weeks post treatment, normalized to mouse Ppia
Method in brief: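 Cortical and spinal cord human APOE RNA quantified by RT-qPCR 8 weeks after a single 300 μg ICV dose in knock-in mice, Ppia-normalized. Values are percent of levels in PBS-treated animals.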

human APOE RNA [4] = assay: Activity in APOE C57BL/6NTac-Apoeem7250 knock-in mice, single ICV bolus, 16 weeks (Example 12); type: in vivo; details: single ICV bolus 300 μg, 16 weeks post treatment, normalized to mouse Ppia
Method in brief: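 A single 300 μg intracerebroventricular dose was given, with PBS-treated mice as reference; cortical and spinal cord tissue was taken 16 weeks later. RT-qPCR quantified human APOE RNA, Ppia-normalized, expressed relative to PBS animals (% control).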

human APOE RNA [5] = assay: Activity in APOE C57BL/6NTac-Apoeem7250 knock-in mice, single ICV bolus, 20 weeks (Example 13); type: in vivo; details: single ICV bolus 300 μg, 20 weeks post treatment, normalized to mouse Ppia
Method in brief: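 Cortical and spinal cord RNA was assayed by real-time RT-PCR for human APOE, normalized to mouse Ppia and reported as percent of PBS controls. Tissue was taken twenty weeks after one 300 μg intracerebroventricular bolus in APOE knock-in mice, 4 per group.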

[6] = 5 nM, HepG2, electroporation, 16-hour treatment
[7] = 13 nM, HepG2, electroporation, 16-hour treatment
[8] = 33 nM, HepG2, electroporation, 16-hour treatment
[9] = 82 nM, HepG2, electroporation, 16-hour treatment
[10] = 205 nM, HepG2, electroporation, 16-hour treatment
[11] = 512 nM, HepG2, electroporation, 16-hour treatment
[12] = 1,280 nM, HepG2, electroporation, 16-hour treatment
[13] = 3,200 nM, HepG2, electroporation, 16-hour treatment
[14] = 8,000 nM, HepG2, electroporation, 16-hour treatment
[15] = 20,000 nM, HepG2, electroporation, 16-hour treatment
[16] = HepG2, electroporation, 16-hour treatment
[17] = HepG2 cells, electroporation, 24-hour treatment, 5 nM, Table 8
[18] = HepG2 cells, electroporation, 24-hour treatment, 13 nM, Table 8
[19] = HepG2 cells, electroporation, 24-hour treatment, 33 nM, Table 8
[20] = HepG2 cells, electroporation, 24-hour treatment, 82 nM, Table 8
[21] = HepG2 cells, electroporation, 24-hour treatment, 205 nM, Table 8
[22] = HepG2 cells, electroporation, 24-hour treatment, 512 nM, Table 8
[23] = HepG2 cells, electroporation, Table 8
[24] = reduction of human APOE RNA, HepG2 cells, electroporation, 24-hour treatment, Table 8

Row | Substance | APOE RNA (% control) Cortex (human APOE RNA [2]) [% control] | APOE RNA (% control) Spinal Cord (human APOE RNA [2]) [% control] | APOE RNA (% control) Cortex (human APOE RNA [3]) [% control] | APOE RNA (% control) Spinal Cord (human APOE RNA [3]) [% control] | APOE RNA (% control) Cortex (human APOE RNA [4]) [% control] | APOE RNA (% control) Spinal Cord (human APOE RNA [4]) [% control] | APOE RNA (% control) Cortex (human APOE RNA [5]) [% control] | APOE RNA (% control) Spinal Cord (human APOE RNA [5]) [% control] | APOE RNA (% UTC) 5 nM (human APOE RNA [1]; [17]) [% UTC] | APOE RNA (% UTC) 13 nM (human APOE RNA [1]; [18]) [% UTC] | APOE RNA (% UTC) 33 nM (human APOE RNA [1]; [19]) [% UTC] | APOE RNA (% UTC) 82 nM (human APOE RNA [1]; [20]) [% UTC] | APOE RNA (% UTC) 205 nM (human APOE RNA [1]; [21]) [% UTC] | APOE RNA (% UTC) 512 nM (human APOE RNA [1]; [22]) [% UTC] | APOE RNA (% UTC) 1,280 nM (human APOE RNA [1]; [23]) [% UTC] | APOE RNA (% UTC) 3,200 nM (human APOE RNA [1]; [23]) [% UTC] | APOE RNA (% UTC) 8,000 nM (human APOE RNA [1]; [23]) [% UTC] | APOE RNA (% UTC) 20,000 nM (human APOE RNA [1]; [23]) [% UTC] | IC50 (human APOE RNA [1]; [24]) [nM] | further results
1 | 1757571 (eA*e[5mC]eTeT*eG*kG*dT*dG[ms]dA[ms]dA[ms]dT*d[5mC]*dT*dT*dT*dA[ms]eT*eT*eA*eA; antisense) [Compound 1757571] | 48 | 35 | 66 | 33 | 47 | 26 | 53 | 73 | – | – | – | – | – | – | – | – | – | – | – | APOE RNA (% UTC) (human APOE RNA [1]; [6]): 68 % UTC; APOE RNA (% UTC) (human APOE RNA [1]; [7]): 86 % UTC; APOE RNA (% UTC) (human APOE RNA [1]; [8]): 98 % UTC; APOE RNA (% UTC) (human APOE RNA [1]; [9]): 62 % UTC; APOE RNA (% UTC) (human APOE RNA [1]; [10]): 103 % UTC; APOE RNA (% UTC) (human APOE RNA [1]; [11]): 38 % UTC; APOE RNA (% UTC) (human APOE RNA [1]; [12]): 26 % UTC; APOE RNA (% UTC) (human APOE RNA [1]; [13]): 24 % UTC; APOE RNA (% UTC) (human APOE RNA [1]; [14]): 14 % UTC; APOE RNA (% UTC) (human APOE RNA [1]; [15]): 11 % UTC; IC50 (human APOE RNA [1]; [16]): 550 nM
2 | 1757574 (eA*e[5mC]eTeT*eG*eG*dT*dG[ms]dA[ms]dA[ms]dT*d[5mC]*dT*dT*dT*dA[ms]kT*kT*eA*eA; antisense) [Compound 1757574] | 43 | 32 | 44 | 21 | 55 | 22 | 60 | 68 | – | – | – | – | – | – | – | – | – | – | – | APOE RNA (% UTC) (human APOE RNA [1]; [6]): 90 % UTC; APOE RNA (% UTC) (human APOE RNA [1]; [7]): 80 % UTC; APOE RNA (% UTC) (human APOE RNA [1]; [8]): 85 % UTC; APOE RNA (% UTC) (human APOE RNA [1]; [9]): 78 % UTC; APOE RNA (% UTC) (human APOE RNA [1]; [10]): 93 % UTC; APOE RNA (% UTC) (human APOE RNA [1]; [11]): 66 % UTC; APOE RNA (% UTC) (human APOE RNA [1]; [12]): 47 % UTC; APOE RNA (% UTC) (human APOE RNA [1]; [13]): 28 % UTC; APOE RNA (% UTC) (human APOE RNA [1]; [14]): 19 % UTC; APOE RNA (% UTC) (human APOE RNA [1]; [15]): 20 % UTC; IC50 (human APOE RNA [1]; [16]): 1170 nM
3 | 1778114: modified oligonucleotide complementary to human APOE RNA (eA*e[5mC]eTeTkG*kG*dT*dG[ms]dA[ms]dA*dT*d[5mC]*dT*dT*dT*dA[ms]eTeT*eA*eA; antisense) [compound 1778114] | 37 | 57 | 47 | 32 | 52 | 27 | 56 | 26 | 78 | 82 | 78 | 78 | 67 | 45 | 42 | 20 | 11 | 7 | 430 | –
4 | 1778115: modified oligonucleotide complementary to human APOE RNA (eA*e[5mC]eTeTkGkG*dT*dG[ms]dA[ms]dA*dT*d[5mC]*dT*dT*dT*dA[ms]eTeT*eA*eA; antisense) [compound 1778115] | 37 | 66 | 46 | 27 | 44 | 28 | 77 | 28 | 76 | 75 | 73 | 85 | 72 | 43 | 38 | 29 | 32 | 6 | 530 | –
5 | 1778123: modified oligonucleotide complementary to human APOE RNA (eA*e[5mC]eTeTeG*eG*dT*dG[ms]dA[ms]dA*dT*d[5mC]*dT*dT*dT*dA[ms]kTkT*eA*eA; antisense) [compound 1778123] | 37 | 59 | 49 | 29 | 54 | 31 | 77 | 36 | 79 | 91 | 84 | 76 | 55 | 51 | 25 | 11 | 6 | 5 | 320 | –
6 | 1778125: modified oligonucleotide complementary to human APOE RNA (eA*e[5mC]eTeTeGeG*dT*dG[ms]dA[ms]dA*dT*d[5mC]*dT*dT*dT*dA[ms]kTkT*eA*eA; antisense) [compound 1778125] | 40 | 52 | 59 | 37 | 75 | 42 | 81 | 49 | 108 | 100 | 77 | 74 | 63 | 39 | 22 | 17 | 5 | 3 | 320 | –
7 | 1785616 (k[5mC]*dT[ms]dT[ms]kG*dG[ms]kT*dG[ms]dA[ms]dA[ms]dT*d[5mC]*dT*dT*dT*dA*dT[ms]kT*kA*dA[ms]kA; antisense) [Compound 1785616] | 47 | 66 | 47 | 27 | 47 | 34 | 77 | 57 | – | – | – | – | – | – | – | – | – | – | – | –
8 | 1785619 (k[5mC]*dT[ms]dT[ms]kG*dG[ms]kT*dG*dA[ms]dA[ms]dT*d[5mC]*dT*dT*dT*dA[ms]dT*kT*kA*dA[ms]kA) [Compound 1785619] | 41 | 41 | 40 | 27 | 40 | 41 | 58 | 59 | – | – | – | – | – | – | – | – | – | – | – | –
